{
  "source": "patent US8790676B2",
  "about": "“Microencapsulated pesticide” (priority 2005, dated 2014)",
  "origin": "cited, not measured here",
  "note": "Read-outs that look alike come from different tables or passages of the source.",
  "data": [
    {"molecule": "CCN(Cc1ccc(Cl)nc1)/C(=C/[N+](=O)[O-])NC", "note": "[Nitempyram, (E)-N-(6-chloro-3-pyridylmethyl)-N-ethyl-N′-methyl-2-nitrovinylidenediamine]", "values": [
      {"measurement": "water-solubility", "setting": "pH 7", "result": "> 590", "unit": "mg/mL"}
    ]},
    {"molecule": "(E)-1-(2-chloro-1,3-thiazol-5-yl)-3-methyl-2-nitroguanidine [Clothianidin]", "values": [
      {"measurement": "water-solubility", "setting": "at pH 4.0, 20° C.", "result": 0.304, "unit": "mg/mL"}
    ]}
  ]
}
